# Data taken from US20250049812A1, “Compounds that Inhibit Necroptosis and Their Preparation Methods” (SHANGHAI INSTITUTE OF ORGANIC CHEMISTRY, CHINESE ACADEMY OF …, priority 2021, published 2025).
# pIC50: −log10 of the molar value.
# System: Jurkat FADD (−/−) Cells
# Test: TNF-α induced necroptosis of Jurkat FADD-deficient cells (CellTiter-Glo cell survival)
# Type: cell-based, human
# Conditions: Homo sapiens, Jurkat, 13 h
# Description: 1. Cell Activity Testing System (TNF-α Induces the Necroptosis of Jurkat Cells, the Human Leukemia Cells Deficient in FADD).
# (1) Cell culture: Jurkat FADD-deficient cells were cultured in an RPMI 1640 medium with 10% fetal bovine serum (FBS), 100 U/mL penicillin, and 100 […]. The cells were cultured in a cell culture incubator at 37° C. with 5% CO2. And all the cells were cryopreserved in a complete medium containing 5-10% DMSO. Medium change and passage were performed 3-4 times per week.
# (4) Experimental scheme: The system of TNF-α inducing the necroptosis of Jurkat FADD-deficient cells was used to screen for compounds with RIPKl kinase inhibitory activity.
# Jurkat FADD-deficient cells were evenly inoculated into a 384-well plate with each well added with a 40 μL complete culture medium, followed by the addition of 5 μL of the under-testing compound to each well. The initial concentration of the compounds was set at 25 μM (for some compounds with higher activity, the initial concentration was set at 0.5 μM), with a three-fold gradient dilution, totaling 12 gradient points. Three replicate wells were set for each compound. In addition, there was a blank control group and a control group with TNFα stimulation only. After the compound was added, the mixture needed to be centrifuged and incubated in a cell culture incubator at 37° C. containing 5% CO2 for 1 hour. After that, 5 μL of 5 ng/mL TNFα was added to stimulate the occurrence of necroptosis. After centrifugation and mixing, the mixture was placed in the cell culture incubator for 13 hours (until the cell death rate reaches 65% in the group with only TNF-α), with a total volume of 50 μL per well. Then, the steps below were followed to test the cell survival rate.
# The CellTiter-Glo® Buffer was removed from the reagent kit, equilibrated to room temperature, and used to dissolve the CellTiter-Glo® Substrate. The CellTiter-Glo® Reagent obtained could be directly used for the experiment.
# 15 μL of CellTiter-Glo® Reagent which has been equilibrated to room temperature was added to each well, and incubated in the dark for 15 minutes. After that, a microplate reader (Enspire Multimode Plate Reader of PerkinElmer, USA) was used to measure the chemiluminescence.
row,Compound,pIC50
1,"CN1C(=O)C(NC(=O)c2nnc(Cc3ccccc3)[nH]2)Cc2cn(CCO)c3cccc1c23 (racemic) [T-33, (±)-5-benzyl-N-(6-(2-hydroxyethyl)-1-methyl-2-oxo-2,3,4,6-tetrahydro-1H-azacyclo [4,3,2-cd]indol-3-yl)-4H-1,2,4-triazole-3-carboxamide]",7.00 to 8.00
2,"CN1C(=O)C(NC(=O)c2nnc(Cc3ccccc3)[nH]2)Cc2cn(CCN3CCOCC3)c3cccc1c23 (racemic) [T-38, (±)-5-benzyl-N-(1-methyl-6-(2-morpholinoethyl)-2-oxo-2,3,4,6-tetrahydro-1H-azacyclo [4,3,2-cd]indol-3-yl)-4H-1,2,4-triazole-3-carboxamide]",> 8.00

# Same assay, conditions: Homo sapiens; TNF-α induced necroptosis, Jurkat FADD-deficient cells, 13 hours, CellTiter-Glo; read-out: IC50
row,Compound,pIC50
1,"CN1C(=O)C(NC(=O)c2nnc(Cc3ccccc3)[nH]2)Cc2c[nH]c3ccnc1c23 (racemic) [T-129, (±)-5-benzyl-N-(6-methyl-7-oxo-6,7,8,9-tetrahydro-2H-2,5,6-triazabenzene[cd]azulene-8-yl)-4H-1,2,4-triazol-3-carboxamide]",6.00 to 7.00
2,"CN1C(=O)[C@@H](NC(=O)c2nnc(Cc3ccccc3)[nH]2)Cc2n[nH]c3cccc1c23 [T-72, (S)-5-benzyl-N-(6-methyl-7-oxo-6,7,8,9-tetrahydro-2H-azacyclo [4,3,2-cd]indazol-8-yl)-4H-1,2,4-triazole-3-carboxamide]",6.00 to 7.00
3,"CCS(=O)(=O)c1cccnc1-n1cc2c3c(cccc31)N(C)C(=O)C(NC(=O)c1nnc(Cc3ccccc3)[nH]1)C2 (racemic) [T-108, (±)-5-benzyl-N-(6-(3-(ethylsulfonyl)pyridin-2-yl)-1-methyl-2-oxo-2,3,4,6-tetrahydro-1H-aza [4,3,2-cd]indol-3-yl)-4H-1,2,4-triazole-3-carboxamide]",7.00 to 8.00
4,"CN1C(=O)C(NC(=O)c2nnc(Cc3ccccc3)[nH]2)Cc2cn(-c3cccnc3)c3cccc1c23 (racemic) [T-101, (±)-5-benzyl-N-(1-methyl-2-oxo-6-(pyridin-3-yl)-2,3,4,6-tetrahydro-1H-azacyclo [4,3,2-cd]indol-3-yl)-4H-1,2,4-triazole-3-carboxamide]",7.00 to 8.00
5,"COC(=O)c1nccnc1-n1cc2c3c(cccc31)N(C)C(=O)C(NC(=O)c1nnc(Cc3ccccc3)[nH]1)C2 (racemic) [T-50, (±)-3-(3-(5-benzyl-4H-1,2,4-triazole-3-carboxamide)-1-methyl-2-oxo-1,2,3,4-tetrahydro-6H-azacyclo [4,3,2-cd]indol-6-yl)methyl pyrazine-2-carboxylate]",> 8.00
6,CCOC(=O)c1cccnc1-n1cc2c3c(cccc31)N(C)C(=O)C(NC(=O)c1nnc(Cc3ccccc3)[nH]1)C2 (racemic) [T-103],7.00 to 8.00
7,"CN1C(=O)[C@@H](NC(=O)c2ncc(Cc3ccccc3)o2)Cn2cc(-c3cn(C)nc3C(F)(F)F)c3cccc1c32 [T-127, (S)-5-benzyl-N-(1-methyl-7-(1-methyl-3-(trifluoromethyl)-1H-pyrazol-4-yl)-2-oxo-1,2,3,4-tetrahydro-[1,4]diazepine [3,2,1-hi]indol-3-yl)oxazole-2-carboxamide]",> 8.00
8,"CN1C(=O)[C@@H](NC(=O)c2nnc(Cc3ccccc3)[nH]2)Cn2cc(-c3cncs3)c3cccc1c32 [T-123, (S)-5-benzyl-N-(1-methyl-2-oxo-7-(thiazol-5-yl)-1,2,3,4-tetrahydro-[1,4]diazepine [3,2,1-hi]indol-3-yl)-4H-1,2,4-triazole-3-carboxamide]",7.00 to 8.00
9,"CN1C(=O)C(NC(=O)c2nnc(Cc3ccccc3)[nH]2)Cn2cc(Br)c3cccc1c32 (racemic) [T-11, (±)-5-benzyl-N-(7-bromo-1-methyl-2-oxo-1,2,3,4-tetrahydro-[1,4]diazepino [3,2,1-hi]indol-3-yl)-4H-1,2,4-triazole-3-carboxamide]",7.00 to 8.00
10,"CN1C(=O)[C@@H](NC(=O)c2nnc(Cc3ccccc3)[nH]2)Cn2cc(-c3cnn(C4CCOCC4)c3)c3cccc1c32 [T-120, (S)-5-benzyl-N-(1-methyl-2-oxo-7-(1-(tetrahydro-2H-pyran-4-yl)-1H-pyrazol-4-yl)-1,2,3,4-tetrahydro-1,4-diazepine[3,2,1-hi]indol-3-yl)-4H-1,2,4-triazole-3-carboxamide]",> 8.00
11,"CN1C(=O)C(NC(=O)c2nnc(Cc3ccccc3)[nH]2)Cc2cn(-c3ncccc3CC(F)(F)F)c3cccc1c23 (racemic) [T-97, (±)-5-benzyl-N-(1-methyl-2-oxo-6-(3-(2,2,2-trifluoroethyl)pyridin-2-yl)-2,3,4,6-tetrahydro-1H-azacyclo [4,3,2-cd]indol-3-yl)-4H-1,2,4-triazole-3-carboxamide]",> 8.00
12,"CN1C(=O)C(NC(=O)c2nnc(Cc3ccccc3)[nH]2)Cn2cc(-c3cccnc3)c3cccc1c32 (racemic) [T-17, (±)-5-benzyl-N-(1-methyl-2-oxo-7-(pyridin-3-yl)-1,2,3,4-tetrahydro-[1,4]diazepino [3,2,1-hi]indol-3-yl)-4H-1,2,4-triazole-3-carboxamide]",7.00 to 8.00
13,"CN1C(=O)C(NC(=O)c2nnc(Cc3ccccc3)[nH]2)Cc2cn(-c3ncccc3CO)c3cccc1c23 (racemic) [T-49, (±)-5-benzyl-N-(6-(3-(hydroxymethyl)pyridin-2-yl)-1-methyl-2-oxo-2,3,4,6-tetrahydro-1H-azacyclo [4,3,2-cd]indol-3-yl)-4H-1,2,4-triazole-3-carboxamide]",> 8.00
14,"CN1C(=O)C(NC(=O)c2nnc(Cc3ccccc3)[nH]2)Cc2cn(-c3ncccc3C3CC3)c3cccc1c23 (racemic) [T-52, (±)-5-benzyl-N-(6-(3-cyclopropylpyridin-2-yl)-1-methyl-2-oxo-2,3,4,6-tetrahydro-1H-azacyclo [4,3,2-cd]indol-3-yl)-4H-1,2,4-triazole-3-carboxamide]",> 8.00
15,"COc1ccc(C)nc1-n1cc2c3c(cccc31)N(C)C(=O)C(NC(=O)c1nnc(Cc3ccccc3)[nH]1)C2 (racemic) [T-64, (±)-5-benzyl-N-(6-(3-methoxy-6-methylpyridin-2-yl)-1-methyl-2-oxo-2,3,4,6-tetrahydro-1H-azacyclo [4,3,2-cd]indol-3-yl)-4H-1,2,4-triazole-3-carboxamide]",> 8.00
16,"CCN1C(=O)C(NC(=O)c2nnc(Cc3ccccc3)[nH]2)Cn2ccc3cccc1c32 (racemic) [T-10, (±)-5-benzyl-N-(1-ethyl-2-oxy-1,2,3,4-tetrahydro-[1,4]diazepino [3,2,1-hi]indol-3-yl)-4H-1,2,4-triazole-3-carboxamide]",7.00 to 8.00
17,"CSc1cn2c3c(cccc13)N(C)C(=O)C(NC(=O)c1nnc(Cc3ccccc3)[nH]1)C2 (racemic) [T-4, (±)-5-benzyl-N-(1-methyl-7-(methylthio)-2-carbonyl-1,2,3,4-tetrahydro-[1,4]diazepino [3,2,1-hi]indol-3-yl)-4H-1,2,4-triazole-3-carboxamide]",7.00 to 8.00
18,"CN1C(=O)C(NC(=O)c2nnc(Cc3ccccc3)[nH]2)Cn2cc(C#N)c3cccc1c32 (racemic) [T-76, (±)-5-benzyl-N-(7-cyano-1-methyl-2-oxo-1,2,3,4-tetrahydro-[1,4]diazepino [3,2,1-hi]indol-3-yl)-4H-1,2,4-triazole-3-carboxamide]",7.00 to 8.00
19,"CN1C(=O)C(NC(=O)c2nnc(Cc3ccccc3)[nH]2)Cc2cn(C(=O)C(C)(C)C)c3cccc1c23 (racemic) [T-39, (±)-5-benzyl-N-(1-methyl-2-oxo-6-pivaloyl-2,3,4,6-tetrahydro-1H-azacyclo [4,3,2-cd]indol-3-yl)-4H-1,2,4-triazole-3-carboxamide]",7.00 to 8.00
20,"CN1C(=O)C(NC(=O)c2nnc(Cc3ccccc3)[nH]2)Cn2cc(-c3ncccc3C(F)(F)F)c3cccc1c32 (stereo not shown) [T-82, 5-benzyl-N-(1-methyl-2-oxo-7-(3-(trifluoromethyl)pyridin-2-yl)-1,2,3,4-tetrahydro-[1,4]diazepino[3,2,1-hi]indol-3-yl)-4H-1,2,4-triazole-3-carboxamide]",> 8.00
21,"CN1C(=O)C(NC(=O)c2nnc(Cc3ccccc3)[nH]2)Cn2ccc3cccc1c32 (racemic) [T-1, (±)-5-benzyl-N-(1-methyl-2-oxy-1,2,3,4-tetrahydro-[1,4]diazepino [3,2,1-hi]indol-3-yl)-4H-1,2,4-triazole-3-carboxamide]",> 8.00
22,"CN1C(=O)C(NC(=O)c2nnc(Cc3ccccc3)[nH]2)Cc2cn(C3CC3)c3cccc1c23 (racemic) [T-23, (±)-5-benzyl-N-(6-cyclopropyl-1-methyl-2-oxo-2,3,4,6-tetrahydro-1H-azacyclo [4,3,2-cd]indol-3-yl)-4H-1,2,4-triazole-3-carboxamide]",6.00 to 7.00

# Same assay, conditions: TNF-α induced necroptosis, Jurkat FADD-deficient cells, 13 hours, CellTiter-Glo; read-out: IC50
row,Compound,pIC50
1,"CN1C(=O)[C@@H](NC(=O)c2nnc(Cc3ccccc3)[nH]2)Cn2ccc3c(-c4c[nH]nc4C(F)(F)F)ccc1c32 [T-113, (S)-5-benzyl-N-(1-methyl-2-oxo-7-(3-(trifluoromethyl)-1H-pyrazol-4-yl)-1,2,3,4-tetrahydro-[1,4]diazepine [3,2,1-hi]indol-3-yl)-4H-1,2,4-triazole-3-carboxamide]",> 8.00
